Assay [1] addresses M. burtonii mevalonate kinase (Methanococcoides burtonii, UniProt Q12TI0). The assay can be described thus: Mevalonate kinase coupled spectrophotometric kinetic and inhibition assay. The assay is classed as biochemical. Conditions: for kcat: 40 nM purified enzyme, varying mevalonate and ATP.
Assay [2] deals with M. mazei mevalonate kinase (Methanosarcina mazei, UniProt Q8PW39). Described as above. The assay is classed as biochemical. As to conditions: for Vmax / α / kcat / Ka/b: random bireactant system model; for kcat: 80 nM purified enzyme, varying mevalonate and ATP; for Ka/b: Ka(Mev), Kb(ATP).
M. mazei mevalonate kinase, sequence (Q8PW39 entry or part of it): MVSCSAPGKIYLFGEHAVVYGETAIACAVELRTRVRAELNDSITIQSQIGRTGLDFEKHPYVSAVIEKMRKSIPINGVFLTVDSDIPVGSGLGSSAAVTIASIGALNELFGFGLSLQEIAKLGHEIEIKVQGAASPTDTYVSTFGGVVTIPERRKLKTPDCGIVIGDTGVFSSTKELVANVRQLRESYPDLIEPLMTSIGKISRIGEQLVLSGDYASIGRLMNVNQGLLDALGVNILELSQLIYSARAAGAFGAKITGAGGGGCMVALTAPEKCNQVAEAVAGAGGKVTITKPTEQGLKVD
Assay [3] deals with engineered E. coli strains. The assay is classed as cell-based.
Where [4] appears, read: inhibitor added at various concentrations to the reaction mix, read-out: Ki.

Where two headings read alike, the source gives them in different places.

One may read the Vmax as the rate approached at saturating substrate. For orientation: kcat means the number of substrate molecules converted per active site and unit of time at saturation. As usually defined, the Ki is a measure of affinity in units of concentration, obtained from inhibition or displacement.

M. burtonii mevalonate kinase, sequence (Q12TI0 entry or part of it): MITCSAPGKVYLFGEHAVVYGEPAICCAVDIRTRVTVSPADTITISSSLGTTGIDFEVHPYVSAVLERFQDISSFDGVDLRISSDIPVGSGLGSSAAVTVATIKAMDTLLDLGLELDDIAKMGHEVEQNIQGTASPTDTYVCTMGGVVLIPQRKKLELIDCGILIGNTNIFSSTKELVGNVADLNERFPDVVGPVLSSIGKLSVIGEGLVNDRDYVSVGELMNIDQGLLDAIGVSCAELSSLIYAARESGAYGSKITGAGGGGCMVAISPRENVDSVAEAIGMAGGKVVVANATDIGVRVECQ

In assay [1], `Nc1ncnc2c1ncn2[C@@H]1O[C@H](COP(=O)(O)OP(=O)(O)OP(=O)(O)O)[C@@H](O)[C@H]1O` [ATP, Adenosine triphosphate] showed a Ka/b of 212 µM. Besides, in assay [1] (random bireactant system model), the Vmax is 2.97 µM/s, the α worked out at 3.74 and the kcat amounted to 74.3 s⁻¹. Besides, in assay [2], the Vmax came out at 2.14 µM/s, the α is reported as 1.62, the turnover number (kcat) is 26.8 s⁻¹ and the Ka/b was determined as 460 µM.

For the compound `CC(C)=CCOP(=O)(O)OP(=O)(O)O` [DMAPP, dimethylallyl diphosphate, reference compound], the inhibition constant (Ki) in assay [1] and in assay [2] was greater than 5 mM in each case.

`CC(C)=CCC/C(C)=C/COP(=O)(O)OP(=O)(O)O` [GPP, geranyl pyrophosphate, reference compound]: the inhibitory constant (Ki) in assay [1] (setting [4]) and in assay [2] (setting [4]) was greater than 5 mM throughout.

Consider `C=C(C)CCO[P@@](=O)(O)OP(=O)(O)O` [IPP, isopentenyl pyrophosphate, reference compound], for which the Ki in assay [1] and in assay [2] was greater than 5 mM throughout.

With `CC(O)(CCOP(=O)(O)O)CC(=O)O` (stereo not shown) [MVP, reference compound], the Ki in assay [1] (setting [4]) and in assay [2] (setting [4]) was greater than 3 mM throughout.

As to `C[C@@](O)(CCOP(=O)(O)OP(=O)(O)O)CC(=O)O` [MVPP, reference compound], the figures for the inhibitory constant (Ki) in assay [1] (setting [4]) and in assay [2] (setting [4]) were greater than 5 mM and greater than 1 mM, respectively.

Turning to `CC(O)(CCO)CC(=O)O` (stereo not shown) [Mevalonate, mevalonate], in assay [1] (random bireactant system model), the maximal velocity (Vmax) is 1.78 µM/s, the α is on record as 0.52 and the kcat was 44.4 s⁻¹. In assay [1] (random bireactant system model, Ka(Mev), Kb(ATP)), this compound gave a Ka/b of 391 µM. In addition, in assay [2], the Vmax was found to be 1.46 µM/s, the α is reported as 0.23, the catalytic constant (kcat) was found to be 18.3 s⁻¹ and the Ka/b was found to be 397 µM. Also, the “growth inhibition by mevalonate” value in assay [3] (strain MCM2131, mevalonate between 0 and 16 mM) is recorded as “not inhibited”. The “growth inhibition by mevalonate” value in assay [3] (strains MCM2125, MCM2127 and MCM2130, mevalonate 0-16 mM) is given as “not inhibited”.

The record behind these values is patent publication US10975394B2, “Recombinant microorganisms for enhanced production of mevalonate, isoprene, and isoprenoids” (Danisco US Inc., priority 2011, dated 2021).
